# Data taken from PubChem BioAssay (NCI).
#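 Assay format: 96-well plates, 48-hour exposure. TGI marks complete inhibition of growth.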
# System: MDA-MB-231 breast
# Assay: NCI tumour cell line growth inhibition, 48 h
row,SMILES,TGI [µM]
1,CO/N=C(\C)c1ccc(Nc2nc3ccccc3c3occc23)cc1,25.9
2,O=P(O)(O)CCP(=O)(O)O,> 100
3,Cc1n(Cc2ccccc2)c2c([n+]1C)C(=O)c1ccccc1C2=O,0.299
4,CN(C)c1ccc(/C=c2/c3ccccc3n3c2c2c([n+]3C)CCCC2)cc1,2.79
5,CCOc1ncn(-c2ccc(NC(=S)Nc3ncccn3)cc2)n1,64.6
6,CC1(C)OC(C(=O)Nc2cc3c4ccccc4ccc3c3ccccc23)C(C(=O)N2CCCCC2)O1 (centres undefined),> 100
7,CCN(CC)CCNc1ccc2nnn3c4ccc(OCCN(CC)CC)cc4c(=O)c1c23,> 100
8,CC(=O)Nc1ccc(N=Nc2c(O)c(S(=O)(=O)O)cc3cc(S(=O)(=O)O)ccc23)cc1,> 100
9,Nc1c(C(=O)O)nnc2ccc(Cl)cc12,> 100
10,O=C(O)C(O)C(O)C(O)C(O)c1nc2ccccc2s1 (centres undefined),31.9

# System: SK-MEL-5 melanoma
# Assay: NCI tumour cell line growth inhibition, 48 h
row,SMILES,TGI [µM]
1,CCCC(=O)OCC1OC(n2ccc(N)nc2=O)C(OC(=O)CCC)C1OC(=O)CCC (centres undefined),> 100
2,O=S(=O)(O)CCCc1cccc2ccccc12,> 100
3,CC(=O)OC1/C=C(\C)C(OC(C)=O)C/C=C(/C)CCC2C(/C=C/C1=O)C2(C)C (centres undefined),> 100
4,NC(CCCCCP(=O)(c1ccccc1)C1C=CC=CC1)C(=O)O (centres undefined),> 100
5,COc1ccc(/C=C2\CCNC2=O)cc1,> 100
6,CC(C)Cc1ccc(C(C)C(=O)N2CCN(/C=C/c3ccccc3)CC2)cc1 (centres undefined),26
7,CO/N=C(\C)c1ccc(Nc2nc3ccccc3c3occc23)cc1,29.8
8,O=c1cc[nH]c(=O)[nH]1,342
9,O=P(O)(O)CCP(=O)(O)O,> 100
10,Cc1n(Cc2ccccc2)c2c([n+]1C)C(=O)c1ccccc1C2=O,0.0509
11,O=C1c2cccc3c2C(=O)c2c(cccc21)OCCOCCOCCOCCO3,> 100
12,C=CCc1c(O)c2c(c3oc(=O)cc(C)c13)CC(C)O2 (centres undefined),> 100
13,CN(C)c1ccc(/C=c2/c3ccccc3n3c2c2c([n+]3C)CCCC2)cc1,0.217
14,CCOc1ncn(-c2ccc(NC(=S)Nc3ncccn3)cc2)n1,44.9
15,CC1(C)OC(C(=O)Nc2cc3c4ccccc4ccc3c3ccccc23)C(C(=O)N2CCCCC2)O1 (centres undefined),> 100
16,COc1cc2c(cc1OC)C(CC1=C(c3ccccc3)CN3CCc4cc(OC)c(OC)cc4C3C1)NCC2 (centres undefined),31.3
17,CC(=O)Nc1ccc(N=Nc2c(O)c(S(=O)(=O)O)cc3cc(S(=O)(=O)O)ccc23)cc1,> 100
18,Nc1c(C(=O)O)nnc2ccc(Cl)cc12,> 100
19,O=C(O)C(O)C(O)C(O)C(O)c1nc2ccccc2s1 (centres undefined),74.1

# System: UACC-257 melanoma
# Assay: NCI tumour cell line growth inhibition, 48 h
row,SMILES,TGI [µM]
1,CCCC(=O)OCC1OC(n2ccc(N)nc2=O)C(OC(=O)CCC)C1OC(=O)CCC (centres undefined),> 100
2,O=S(=O)(O)CCCc1cccc2ccccc12,> 100
3,CC(=O)OC1/C=C(\C)C(OC(C)=O)C/C=C(/C)CCC2C(/C=C/C1=O)C2(C)C (centres undefined),> 100
4,NC(CCCCCP(=O)(c1ccccc1)C1C=CC=CC1)C(=O)O (centres undefined),> 100
5,COc1ccc(/C=C2\CCNC2=O)cc1,> 100
6,CC(C)Cc1ccc(C(C)C(=O)N2CCN(/C=C/c3ccccc3)CC2)cc1 (centres undefined),31.4
7,CO/N=C(\C)c1ccc(Nc2nc3ccccc3c3occc23)cc1,31.4
8,O=c1cc[nH]c(=O)[nH]1,> 1000
9,O=P(O)(O)CCP(=O)(O)O,> 100
10,Cc1n(Cc2ccccc2)c2c([n+]1C)C(=O)c1ccccc1C2=O,0.14
11,O=C1c2cccc3c2C(=O)c2c(cccc21)OCCOCCOCCOCCO3,> 100
12,C=CCc1c(O)c2c(c3oc(=O)cc(C)c13)CC(C)O2 (centres undefined),> 100
13,CN(C)c1ccc(/C=c2/c3ccccc3n3c2c2c([n+]3C)CCCC2)cc1,2.88
14,CCOc1ncn(-c2ccc(NC(=S)Nc3ncccn3)cc2)n1,> 100
15,CC1(C)OC(C(=O)Nc2cc3c4ccccc4ccc3c3ccccc23)C(C(=O)N2CCCCC2)O1 (centres undefined),> 100
16,CCN(CC)CCNc1ccc2nnn3c4ccc(OCCN(CC)CC)cc4c(=O)c1c23,> 100
17,COc1cc2c(cc1OC)C(CC1=C(c3ccccc3)CN3CCc4cc(OC)c(OC)cc4C3C1)NCC2 (centres undefined),34.3
18,CC(=O)Nc1ccc(N=Nc2c(O)c(S(=O)(=O)O)cc3cc(S(=O)(=O)O)ccc23)cc1,> 100
19,Nc1c(C(=O)O)nnc2ccc(Cl)cc12,> 100
20,O=C(O)C(O)C(O)C(O)C(O)c1nc2ccccc2s1 (centres undefined),30.9

# System: A549 NSCLC
# Assay: NCI tumour cell line growth inhibition, 48 h
row,SMILES,TGI [µM]
1,CCCC(=O)OCC1OC(n2ccc(N)nc2=O)C(OC(=O)CCC)C1OC(=O)CCC (centres undefined),> 100
2,O=S(=O)(O)CCCc1cccc2ccccc12,> 100
3,CC(=O)OC1/C=C(\C)C(OC(C)=O)C/C=C(/C)CCC2C(/C=C/C1=O)C2(C)C (centres undefined),> 100
4,NC(CCCCCP(=O)(c1ccccc1)C1C=CC=CC1)C(=O)O (centres undefined),> 100
5,COc1ccc(/C=C2\CCNC2=O)cc1,> 100
6,CC(C)Cc1ccc(C(C)C(=O)N2CCN(/C=C/c3ccccc3)CC2)cc1 (centres undefined),29.7
7,CO/N=C(\C)c1ccc(Nc2nc3ccccc3c3occc23)cc1,39
8,O=c1cc[nH]c(=O)[nH]1,> 1000
9,O=P(O)(O)CCP(=O)(O)O,> 100
10,O=c1sc2ccccc2n1CC1CS1 (centres undefined),> 100
11,Cc1n(Cc2ccccc2)c2c([n+]1C)C(=O)c1ccccc1C2=O,0.197
12,O=C1c2cccc3c2C(=O)c2c(cccc21)OCCOCCOCCOCCO3,> 100
13,C=CCc1c(O)c2c(c3oc(=O)cc(C)c13)CC(C)O2 (centres undefined),> 100
14,CN(C)c1ccc(/C=c2/c3ccccc3n3c2c2c([n+]3C)CCCC2)cc1,1.96
15,CCOc1ncn(-c2ccc(NC(=S)Nc3ncccn3)cc2)n1,> 100
16,CC1(C)OC(C(=O)Nc2cc3c4ccccc4ccc3c3ccccc23)C(C(=O)N2CCCCC2)O1 (centres undefined),> 100
17,CCN(CC)CCNc1ccc2nnn3c4ccc(OCCN(CC)CC)cc4c(=O)c1c23,> 100
18,COc1cc2c(cc1OC)C(CC1=C(c3ccccc3)CN3CCc4cc(OC)c(OC)cc4C3C1)NCC2 (centres undefined),33.5
19,CC(=O)Nc1ccc(N=Nc2c(O)c(S(=O)(=O)O)cc3cc(S(=O)(=O)O)ccc23)cc1,> 100
20,Nc1c(C(=O)O)nnc2ccc(Cl)cc12,> 100
21,O=C(O)C(O)C(O)C(O)C(O)c1nc2ccccc2s1 (centres undefined),39.3

# System: HOP-62 NSCLC
# Assay: NCI tumour cell line growth inhibition, 48 h
row,SMILES,TGI [µM]
1,CCCC(=O)OCC1OC(n2ccc(N)nc2=O)C(OC(=O)CCC)C1OC(=O)CCC (centres undefined),8.55
2,O=S(=O)(O)CCCc1cccc2ccccc12,> 100
3,CC(=O)OC1/C=C(\C)C(OC(C)=O)C/C=C(/C)CCC2C(/C=C/C1=O)C2(C)C (centres undefined),> 100
4,COc1ccc(/C=C2\CCNC2=O)cc1,> 100
5,CC(C)Cc1ccc(C(C)C(=O)N2CCN(/C=C/c3ccccc3)CC2)cc1 (centres undefined),29.7
6,CO/N=C(\C)c1ccc(Nc2nc3ccccc3c3occc23)cc1,29.5
7,O=c1cc[nH]c(=O)[nH]1,> 872
8,O=P(O)(O)CCP(=O)(O)O,> 100
9,O=c1sc2ccccc2n1CC1CS1 (centres undefined),> 100
10,Cc1n(Cc2ccccc2)c2c([n+]1C)C(=O)c1ccccc1C2=O,0.775
11,O=C1c2cccc3c2C(=O)c2c(cccc21)OCCOCCOCCOCCO3,> 100
12,C=CCc1c(O)c2c(c3oc(=O)cc(C)c13)CC(C)O2 (centres undefined),> 100
13,CN(C)c1ccc(/C=c2/c3ccccc3n3c2c2c([n+]3C)CCCC2)cc1,1.58
14,CCOc1ncn(-c2ccc(NC(=S)Nc3ncccn3)cc2)n1,> 100
15,CC1(C)OC(C(=O)Nc2cc3c4ccccc4ccc3c3ccccc23)C(C(=O)N2CCCCC2)O1 (centres undefined),> 100
16,CCN(CC)CCNc1ccc2nnn3c4ccc(OCCN(CC)CC)cc4c(=O)c1c23,72.9
17,CC(=O)Nc1ccc(N=Nc2c(O)c(S(=O)(=O)O)cc3cc(S(=O)(=O)O)ccc23)cc1,> 100
18,Nc1c(C(=O)O)nnc2ccc(Cl)cc12,> 100
19,O=C(O)C(O)C(O)C(O)C(O)c1nc2ccccc2s1 (centres undefined),33.5
